Results on one compound are retold here after US20220296515A1, “Vancomycin Liposome Compositions and Methods” (Nevakar Injectables Inc., priority 2019, published 2022).

Usually AUC(0-inf) stands for the area under the concentration-time curve extrapolated to infinity. A low value points to less exposure. For orientation: Cmax means the maximum level reached in the sampled fluid or tissue. A word on the Tmax: it is the time at which the peak concentration occurs. In general, half-life refers to how long it takes for the measured level to halve.

Series [1] can be described thus: Pharmacokinetic study in rat models (single dose, infusion). In kind it is in vivo. To be noted: 15 mg/kg, infusion time 1 h. From the text: 5. […] Thus, vancomycin was available for a prolonged period and less frequent administration is enabled.
For series [2], the system named is rats. In words: Kidney histopathology in the rat toxicity study. The settings on record: 150 mg/kg daily for 5 days. The series is classed as in vivo. The method, then:
(§1) To evaluate toxicity of the liposomal formulations, rats were dosed daily with 150 mg/kg test formulation for 5 days, which is about 10-fold of a dose for human administration (typically 1 g).
(§2) The endpoints for renal damage were urinary biomarkers (KIM-1, Clusterin, Osteopontin), a plasma biomarker (creatinine), and histopathology findings for the kidney. Here, blood sampling was performed at a total volume of 2 mL and clinical chemistry samples were drawn pre-dosing, day 3, and day 5 (0.25 mL each), and pharmacokinetic samples were drawn on Day 1 (4 samples of 0.125 mL), Day 3 (4 samples of 0.125 mL), and Day 5 (2 samples of 0.125 mL). For each animal, at euthanasia, kidneys were formalin fixed and flash frozen in liquid nitrogen. Samples were analyzed for histopathological grading using standard procedures well known in the art.

For series [3], the system named is rats. In words: Urinary biomarkers of renal damage (KIM-1, clusterin, osteopontin) in the rat toxicity study. The series is classed as in vivo. The settings on record: 150 mg/kg daily for 5 days, FIG. 8. The protocol: as §1, §2
Further exemplary results are shown for selected urinary markers in FIG. 8. Here, the markers included KIM-1, clusterin, and osteopontin (OPN). […] On the other hand, the markers remained substantially unchanged or only moderately elevated over control in both treatment groups where liposomal compositions according to the inventive subject matter were used.

The conditions of series [4]: cited from earlier work.

Read-outs that look alike come from different tables or passages of the source.

In series [1], `CN[C@H](CC(C)C)C(=O)N[C@H]1C(=O)N[C@@H](CC(N)=O)C(=O)N[C@H]2C(=O)N[C@H]3C(=O)N[C@H](C(=O)N[C@H](C(=O)O)c4cc(O)cc(O)c4-c4cc3ccc4O)[C@H](O)c3ccc(c(Cl)c3)Oc3cc2cc(c3O[C@@H]2O[C@H](CO)[C@@H](O)[C@H](O)[C@H]2O[C@H]2C[C@](C)(N)[C@H](O)[C@H](C)O2)Oc2ccc(cc2Cl)[C@H]1O` [Vancomycin] returned a Lambda z of 0.879. Moreover, in series [1] (serum, iv), the AUC(0-inf) was determined as 34800 ng·h/mL, the peak level (Cmax) was 34600 ng/mL, the Tmax amounted to 0 h and the half-life was 48 min. For the same compound, in the series with rats [2], the kidney histopathological findings result is “significant proximal tubular cell injury and repair”. The “urinary markers KIM-1, clusterin, osteopontin (OPN)” value with rats [3] was “significant elevations of all markers”. In series [4] (humans with normal renal function), the half-life result is recorded as “three to six”. Moreover, the mean plasma concentration in series [4] (humans, multiple intravenous infusions of 1 gram over 60 minutes, 11 hours after end of infusion) was 8000 ng/mL. In series [4] (within 24 h after a single dose), the “recovered unchanged in urine” value was 80%-90.
